Results published in ChEMBL document CHEMBL1201862, “PubChem BioAssay data set” (2004).
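Interpolation was linear, between the two tested concentrations surrounding the appropriate level; five concentrations were tested over 48 hours in 96-well plates. Abbreviation: GI50, concentration required for 50% inhibition of growth.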 Active and inactive are the calls of the source. No stated cut-off is given here; in the data, active = GI50 up to about 1.1 µM and inactive = higher.

Assays:
Assay in all cases: DTP human tumour cell line panel, 48 h
[1] = test system: XF498
[2] = test system: DMS-273
[3] = test system: DLD-1
[4] = test system: HOP-18
[5] = test system: DMS-114
[6] = test system: LXFL 529
[7] = test system: KM-20L2
[8] = test system: SNB-78
[9] = test system: RXF 631

Measured: GI50

NC1=NS(=O)(=O)N=C(N)C1=Cc1ccc([N+](=O)[O-])o1
inactive: [1] 18.7 µM | [2] 16.7 µM | [3] 17.1 µM | [4] 18 µM | [5] 17.7 µM | [6] 17.1 µM | [7] 16.6 µM | [8] 19.6 µM

O=C(NCO)NCOCn1c(=O)n(CO)c(=O)n(CO)c1=O
inactive: [1] 23.2 µM | [9] > 61.7 µM | [3] 24.9 µM | [4] > 100 µM | [5] 34.4 µM | [6] 20 µM | [7] 38.6 µM | [8] 28.4 µM

NCCSc1cc(O)c2c(c1N)C(=O)c1ccccc1C2=O
inactive: [1] 21.8 µM | [9] 25.2 µM | [3] 30.3 µM | [6] 38.2 µM | [7] 5.51 µM | [8] 32.1 µM

N#[N+][c-]1c(-c2ccccc2)n[nH]c1=O
inactive: [1] > 100 µM | [9] > 100 µM | [2] > 100 µM | [3] > 100 µM | [5] > 100 µM | [6] > 100 µM | [7] > 100 µM

O=C1NC(=S)NC(=O)C1=Cc1ccc2ccccc2n1
inactive: [2] > 100 µM | [3] > 100 µM | [4] > 100 µM | [5] > 100 µM | [6] > 100 µM | [7] > 100 µM | [8] > 100 µM

COc1ccc(/C=C/C(=O)c2sc(-c3cccnc3)nc2C)cc1
inactive: [9] 54.3 µM | [2] 40.9 µM | [3] 39.4 µM | [4] 45.3 µM | [5] 26.7 µM | [7] 56.4 µM | [8] > 100 µM

O=c1[nH]c(S)nc2c1sc(=S)n2-c1ccccc1
inactive: [1] > 100 µM | [2] > 100 µM | [3] > 100 µM | [4] > 100 µM | [5] > 100 µM | [6] > 100 µM | [7] > 100 µM | [8] > 100 µM

CC12CC/C(=N/NC(N)=O)C3C1CCCC32
inactive: [9] > 100 µM | [2] > 100 µM | [3] > 100 µM | [4] > 100 µM | [5] > 100 µM | [6] > 100 µM | [7] > 100 µM

COC(=O)/C(C#N)=C1\CCC(OC)N1C (configuration not stated)
inactive: [1] > 100 µM | [2] > 100 µM | [3] > 100 µM | [4] > 100 µM | [5] > 100 µM | [6] > 100 µM | [7] > 100 µM | [8] > 100 µM

Cc1cc2nc(O)c(CCC(=O)O)nc2cc1C
inactive: [1] > 100 µM | [9] > 100 µM | [3] > 100 µM | [4] > 100 µM | [5] 35.6 µM | [6] > 100 µM | [7] > 100 µM | [8] > 100 µM

O=C1C(c2ccccc2)=[N+]([O-])c2ccc(Cl)cc21
inactive: [1] 19 µM | [9] 32.7 µM | [3] 19 µM | [4] 29.6 µM | [5] 12.8 µM | [6] 13.6 µM | [7] 35.1 µM

CC(C)CCC[C@@H](C)C1CCC2[C@@H]3CC=C4C[C@@H](C(=O)NCC[N+](C)(C)CCCS(=O)(=O)[O-])CC[C@]4(C)C3CC[C@@]21C (some centres not stated)
inactive: [9] 18.4 µM | [2] 17 µM | [3] 22.4 µM | [4] 17.7 µM | [5] 19.9 µM | [6] 18.8 µM | [7] 16.4 µM | [8] 18.8 µM

CC(/C=C/NNC1=NN=C(c2ccccc2)C(c2ccccc2)N1)Sc1ccccc1N (configuration not stated)
inactive: [9] 13.1 µM | [2] 6.7 µM | [3] 3.62 µM | [6] 4.98 µM | [7] 10.6 µM | [8] 7.31 µM

COc1ccc([C@H]2CC3C(=O)N(c4ccc(OC)cc4)C(=O)C3c3[nH]c4ccccc4c32)cc1 (some centres not stated)
inactive: [1] 32.7 µM | [2] 14.8 µM | [3] 93.8 µM | [5] 87.9 µM | [6] 55.1 µM | [7] 69.5 µM | [8] > 100 µM

CC(C)c1ccccc1NC(=O)CCC(=O)NN
inactive: [1] > 100 µM | [9] > 100 µM | [2] > 100 µM | [3] > 100 µM | [6] > 100 µM | [7] > 100 µM | [8] > 100 µM

COc1ccc(-c2cc(-c3cc(Cl)cc(Br)c3O)nc(O)n2)cc1
inactive: [2] 15 µM | [3] 16.7 µM | [4] 17.2 µM | [5] 14.1 µM | [6] 14.6 µM | [7] 19.1 µM | [8] 18.7 µM

CCSc1nnc(-c2ccccc2)nc1Cc1ccc(OC)cc1
inactive: [1] 62.7 µM | [2] 71.9 µM | [3] > 100 µM | [4] > 100 µM | [6] 50.8 µM | [7] > 100 µM | [8] 78 µM

Cc1ccccc1/C=C/c1csnn1
inactive: [1] > 100 µM | [9] > 100 µM | [2] > 100 µM | [3] > 49.5 µM | [4] > 100 µM | [5] > 40.6 µM | [6] > 100 µM | [7] > 100 µM | [8] > 100 µM

CSc1sc(=S)sc1C(=O)N(C)c1ccccc1
inactive: [1] > 100 µM | [2] > 100 µM | [5] > 100 µM | [6] > 100 µM | [7] > 100 µM | [8] > 100 µM

CSC(=O)C[C@@]12O[C@@H]([C@@H](C)C3CCC4[C@@H]5C(O)CC6=CC(=O)C=C[C@]6(C)C5CC[C@@]43C)C[C@](C)(O1)C(C)(C)O2 (some centres not stated)
inactive: [1] 14.7 µM | [9] 19.8 µM | [2] 15.9 µM | [5] 5.81 µM | [6] 13.2 µM | [8] 15.5 µM

CC(=O)O[C@@H]1CC(C)C2CC2C2=C(C(O)OC2O)[C@@H]1C(C)CCC=C(C)C (some centres not stated)
inactive: [1] 19 µM | [2] 21.4 µM | [3] 32.4 µM | [5] 23.2 µM | [6] 27.6 µM | [7] 18.7 µM | [8] 30.5 µM

COC(=O)C1=Cc2cc(OC)c(OC)c(OC)c2[C@H](c2cc(OC)c(OC)c(OC)c2)C1C(=O)OC (some centres not stated)
inactive: [1] > 100 µM | [9] > 100 µM | [2] > 100 µM | [3] > 100 µM | [5] > 100 µM | [6] > 100 µM | [7] > 100 µM | [8] > 100 µM

C1CN(P2(N3CC3)=NP(N3CC3)(N3CC3)=NP(N3CC3)(N3CC3)=N2)CCO1 (configuration not stated) [FOTRETAMINE]
inactive: [1] > 100 µM | [2] 32.4 µM | [3] > 53.5 µM | [4] > 100 µM | [5] 80.7 µM | [6] > 100 µM | [7] > 100 µM | [8] > 100 µM
